pIC50: −log10 of the molar value.
Tests used:
[1] = target: T1, Lysyl oxidase (Bos taurus, UniProt P33072); assay: Kinetic investigation: dialysis of lysyl oxidase-inhibitor complexes against inhibitor-free buffer, recovery of activity; assay type: biochemical, bovine; details: for vt/vmax: preincubation at 10-fold IC50; for k−1: calculated from slopes; for kon: pH 8.2, from k−1 and IC50, read-out: k1 (association velocity constant) (converted)
T1 construct: The enzyme preparation was carried out at 4° C. with fresh material from bovine aorta; from tissue; host or cells: bovine aorta
T1 sequence (P33072 170-418): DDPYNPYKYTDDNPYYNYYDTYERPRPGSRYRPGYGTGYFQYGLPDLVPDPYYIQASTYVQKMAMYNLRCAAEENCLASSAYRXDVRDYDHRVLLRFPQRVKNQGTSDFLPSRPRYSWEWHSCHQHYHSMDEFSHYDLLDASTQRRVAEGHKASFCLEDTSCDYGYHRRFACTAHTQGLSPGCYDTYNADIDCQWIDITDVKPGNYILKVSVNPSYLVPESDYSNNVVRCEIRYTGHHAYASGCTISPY
Protocol: Lysyl oxidasee and lysyl oxidase inhibitors of the structural formulas (XX)-(XXIII) (Table 1) were coincubated at concentrations that were 10-fold over the respective IC50 of the inhibitor and were subsequently dialyzed against 0.5 M borax buffer at pH 8.2 without added inhibitor. The dialysis buffer was exchanged twice during the first hour and subsequently three times in hourly intervals. The volume against which was dialyzed was at least 100-fold greater than the volume of the lysyl oxidase preparation in the dialysis tube. After 2, 4, 5 und 19 h lysyl oxidase activity was measured as described in Example 2. In a parallel assay a dialysis with a non-inhibited lysyl oxidase preparation was carried out to determine the effect of spontaneous activity loss during dialysis and to obtain a reference value (100% activity, positive control). From the obtained change in time-dependent activity it was possible to calculate the dissociation velocity constants of the inhibitor compounds, the half life times of the enzyme-inhibitor complexes and the association velocity constants. In the following section it is derived how these kinetic parameters can be determined form the measurement of the reaction velocity with the inhibited fraction at the timepoint t (vt) and the reaction velocity with the positive control (vmax).
Derivations: During dialysis against buffer without inhibitor the complex (EI) consisting of enzyme (E) and inhibitor (I) decays with a dissociation constant of first k−1
The velocity of decay is proportional to the concentration of the enzyme-inhibitor complex:
Rearranging this equation and definite Integration from the initial enzyme-inhibitor-complex concentration ([EI]0) to the concentration of the complex at the measurement time point t ([EI]t) on the left side and from t=0 to t on the right side yields:
The ratio of the reaction velocity when the inhibited enzyme preparation is used at a measurement time point t (vt) to the reaction velocity when the positive control is used (vmax) is dependent on the proportion of the total enzyme concentration in the assay ([E]0) that is present as enzyme-inhibitor-complex concentration at a time point t ([EI]t). The following equation describes this relationship: […]
For reasons of simplification a variable Rt can be defined
Solving the above differential equation and substituting Rt into the equation one obtains: […]
By linear regression with ln Rt and t, k−1 can be determined as the coefficient of slope.
Using k−1 one can calculate the half-life time of the enzyme-inhibitor-complexes (t1/2) as:
To determine the kinetic association constant the equilibrium is considered:
At the particular inhibitor concentration (IC50) at which the reaction velocity is 50% of the reaction velocity of the positive control, the free enzyme concentration ([E]) is approximately equal to the concentration of the enzyme inhibitor complex ([EI])
By substitution into the equilibrium equation and by simple rearrangement one obtains a term for the association constant which is dependent on the dissociation constant determined above and on the IC50:
Results Tables 2a to 2d show the results from reaction velocity measurements at the time points after 0, 120, 270 and 1140 min of dialysis against an inhibitor-free buffer. The relative reaction velocities and the derived constants are provided. In addition, the results of a regression analysis according to Example 3 are provided, from which the kinetic constants from table 3 can be calculated. Results are shown for compounds (XX)-[…].

[2] = target: T1, Lysyl oxidase; assay: Lysyl oxidase inhibition, peroxidase-coupled fluorometric activity test; assay type: biochemical, bovine
Protocol: Lysyl oxidase was isolated form bovine aorta, modified according to Williams und Kagan (1985) Assessment of lysyl oxidase variants by urea gel electrophoresis: evidence against disulfide isomers as bases of the enzyme heterogeneity. Anal. Biochem. 149: 430-7, and Kagan und Sullivan (1982) Lysyl oxidase: preparation and role in elastin biosynthesis. Methods Enzymol. 82(Pt A): 637-50. The enzyme preparation was carried out at 4° C. with fresh material from bovine aorta. The aorta was homogenized for 90 seconds in 2.5. ml buffer per gram of tissue. The buffer consisted of 16 mM potassium phosphate, 150 mM sodium chloride and 1 mM phenylmethylsulfonylfluoride. The homogenized mixture was centrifuged for 20 minutes at 11,000 g. The homogenization was followed by a centrifugation step and was repeated with 150 mM sodium chloride buffer and 1 M urea buffer. The pellet that was obtained after centrifugation was homogenized in buffer plus 4 M urea, was stirred over night and centrifuged twice. The supernatants with the lysyl oxidase activity were stored each time.
To determine the specific enzyme activity of lysyl oxidase a coupled activity test with fluorescence was applied (modified according to nach Trackman P C, Zoski C G, Kagan, H M (1981) Development of a peroxidase-coupled fluorometric assay for lysyl oxidase. Anal. Biochem. 113: 336-342).
Into a 2 ml plastic cuvette the following reaction solution was pipetted:
The fluorescence of the reaction solution was determined at an excitation wavelength of 350 nm and measurement of emission was carried out at 425 nm at 37° C. Before the addition of the sample solution fluorescence was determined by calibration with 1 nmol hydrogen peroxide. This increase in fluorescence was equivalent to a turnover of 1 nmol 1,5-diaminopentane. As a positive control the time course of the increase in fluorescence when an equivalent volume of lysyl oxidase without inhibitor was added, was used. The development of fluorescence of the assay without the addition of lysyl oxidase used as a negative control. […]

[3] = regression analysis below Tables 2a-2d

Row | SMILES | Rt ([1]; 0 min of dialysis) | ln Rt ([1]; 0 min of dialysis) | vt/vmax ([1]; 0 min of dialysis) | Rt ([1]; 120 min of dialysis) | ln Rt ([1]; 120 min of dialysis) | vt/vmax ([1]; 120 min of dialysis) | Rt ([1]; 270 min of dialysis) | ln Rt ([1]; 270 min of dialysis) | vt/vmax ([1]; 270 min of dialysis) | Rt ([1]; 1,140 min of dialysis) | vt/vmax ([1]; 1,140 min of dialysis) | k−1 ([1]; Table 3) [h⁻¹] | kon ([1]; Table 3) [M⁻¹ s⁻¹] | ln Rt ([1]; 1,140 min of dialysis) | k−1 (dissociation velocity constant) [1, 3] [h⁻¹] | residence time ([1]; Table 3, from k−1, read-out: t1/2 (half-life time of the enzyme-inhibitor complex) (converted)) [min] | slope (linear regression of ln Rt against t) [1, 3] | pIC50 ([2]; Table 1, lysyl oxidase from bovine aorta, 37° C., pH 8.2) | pIC50 ([2]; Table 3) | pIC50 ([2]; as quoted in titles of Tables 2a-2d)
1 | COCCc1ccc(Oc2c(-n3ccnc3)cnn(-c3ccc(Cl)cc3)c2=O)cc1 [(XX), 2-(4-chlorophenyl)-5-(1H-imidazole-1-yl)-4-[4-(2-methoxyethyl)phenoxy]pyridazine-3(2H)-one] | 1 | 0 | 0 | 0.91 | −9.431 × 10^−2 | 9 × 10^−2 | 0.72 | −0.3285 | 0.28 | 0 | 1 | 0.053 | 13.6 | – | – | – | – | – | – | –
2 | O=c1c(Oc2ccc(-c3ccccc3)cc2)c(-n2ccnc2)cnn1-c1ccc(Cl)cc1Cl [(XXII), 4-(1,1′-biphenyl-4-yloxy)-2-(2,4-dichlorophenyl)-5-(1H-imidazole-1-yl)pyridazine-3(2H)-one] | 1 | 0 | 0 | 0.75 | −0.2877 | 0.25 | 0.64 | −0.4463 | 0.36 | 0.33 | 0.67 | 0.074 | 75 | −1.109 | 0.05344 | – | – | – | – | –
3 | CCCc1ccc(Oc2c(-n3ccnc3)cnn(-c3ccc(Cl)cc3)c2=O)cc1 [(XXIII), 2-(4-chlorophenyl)-5-(1H-imidazole-1-yl)-4-(4-propylphenoxy)pyridazine-3(2H)-one] | 0.84 | −0.1744 | 0.16 | 0.47 | −0.7550 | 0.53 | 0.37 | −0.9943 | 0.63 | 0.11 | 0.89 | 0.097 | 18.3 | −2.207 | 0.09694 | 438 | −1.616×10^−3 1/min | 5.83 | 5.83 | ~5.83
